Source: patent US10723711B2, “1,1,1-trifluoro-3-hydroxypropan-2-yl carbamate derivatives and 1,1,1-trifluoro-4-hydroxybutan-2-yl carbamate derivatives as MAGL inhibitors” (PFIZER INC., priority 2015, dated 2020)
Where two headings read alike, the source gives them in different places.

How the values were obtained:
Type in all cases: biochemical
[1] = target: T1, human recombinant Monoacylglycerol Lipase (Homo sapiens, UniProt Q99685); test: MAGL inhibition enzymatic assay, fluorogenic substrate 7-HCA, IC50 at T=0 min or after 30 minute incubation (T=30 min); settings: geometric mean of 2-4 determinations unless otherwise indicated
T1 sequence (Q99685 1-303): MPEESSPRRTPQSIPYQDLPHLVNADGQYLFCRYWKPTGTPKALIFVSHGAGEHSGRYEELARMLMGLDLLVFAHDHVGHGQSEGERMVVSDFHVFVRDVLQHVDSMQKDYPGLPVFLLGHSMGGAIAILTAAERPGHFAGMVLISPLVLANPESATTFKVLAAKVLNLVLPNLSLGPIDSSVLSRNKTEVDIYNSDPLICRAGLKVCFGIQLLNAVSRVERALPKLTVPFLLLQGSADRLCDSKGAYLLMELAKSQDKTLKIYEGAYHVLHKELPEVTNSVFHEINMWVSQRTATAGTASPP
Experimental: An equal volume of 7-HCA in assay buffer with 10% DMSO was added either immediately (T=0 min) or after a 30 minute incubation (T=30 min) to initiate the reaction. […] After these dilutions, the final concentration of the test compound ranged from 3 μM to 0.03 nM. […] IC50 values were generated based on a four parameter fit model using ABASE software from IDBS.

human recombinant FAAH = target: T2, human recombinant FAAH (Homo sapiens, UniProt O00519); test: FAAH inhibition enzymatic assay, fluorescent substrate Arachidonoyl-AMC, 30 minute incubation; settings: T = 30 min (30 minute incubation); geometric mean of 2-4 determinations unless otherwise indicated
T2 construct: purchased Cayman 10010183
T2 sequence (O00519 1-579): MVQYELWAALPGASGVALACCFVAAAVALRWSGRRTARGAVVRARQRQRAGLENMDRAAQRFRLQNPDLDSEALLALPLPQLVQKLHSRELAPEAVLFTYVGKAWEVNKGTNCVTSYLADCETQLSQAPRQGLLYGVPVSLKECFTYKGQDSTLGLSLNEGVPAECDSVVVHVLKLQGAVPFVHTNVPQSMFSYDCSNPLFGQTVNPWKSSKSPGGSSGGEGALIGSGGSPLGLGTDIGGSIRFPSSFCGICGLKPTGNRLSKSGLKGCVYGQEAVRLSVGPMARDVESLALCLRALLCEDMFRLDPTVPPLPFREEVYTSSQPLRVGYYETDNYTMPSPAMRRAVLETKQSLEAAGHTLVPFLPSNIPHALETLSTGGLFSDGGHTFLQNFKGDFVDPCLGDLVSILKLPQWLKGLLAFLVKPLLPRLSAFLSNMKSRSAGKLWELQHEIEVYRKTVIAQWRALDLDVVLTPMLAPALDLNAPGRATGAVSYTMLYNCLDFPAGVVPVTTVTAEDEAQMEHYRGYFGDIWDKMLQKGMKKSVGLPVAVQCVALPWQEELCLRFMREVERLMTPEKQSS
Experimental: Assessment of FAAH inhibition utilizes human recombinant FAAH and the fluorescent substrate, Arachidonoyl-AMC. 400 nL of a test compound at decreasing concentrations was spotted into a 384-well back plate (PerkinElmer, 6007279) using a Labcyte Echo, followed by addition of 10 μl of FAAH enzyme (Cayman 10010183) in assay buffer (50 mM Tris, pH 9.0, 1 mM EDTA). After a 30 minute incubation at room temperature, 10 μL of Arachidonyl-AMCA was added in assay buffer with 16% DMSO. Final concentration of FAAH enzyme was 0.0125 Units and AAMCA substrate was used at the Km of 5 μM. […] The reaction was allowed to progress for 60 minutes, after which the plate was read on a Molecular Devices FlexStation reader at an Ex/Em of 355/460. Percent inhibitions were calculated based on controls wells containing either no compound (0% inhibition) or a control compound (e.g., an FAAH inhibitor whose activity is known or was previously reported in the literature, such as one with about 100% inhibition). IC50 values were generated based on a four parameter fit model using ABASE software from IDBS.

[2] = target: T1, human recombinant Monoacylglycerol Lipase; test: MAGL inactivation, enzyme progress curves, kinact/KI; settings: from enzyme progress curves, T = 0 min protocol; geometric mean of 2-4 determinations unless otherwise indicated
Experimental: Assessment of MAGL inhibition utilizes human recombinant Monoacylglycerol Lipase and the fluorogenic substrate 7-hydroxycoumarinyl arachidonate (7-HCA, Biomol ST-502). 400 nL of a test compound at decreasing concentration (ranging from 150 μM down to 1.5 nM) was spotted into a 384-well back plate (PerkinElmer, 6007279) using a Labcyte Echo, followed by addition of 10 μL of MAGL enzyme in assay buffer (50 mM HEPES, pH 7.4, 100 mM NaCl, 5 mM MgCl2, 0.1% Triton X-100 and 25% glycerin). An equal volume of 7-HCA in assay buffer with 10% DMSO was added either immediately (T=0 min) or after a 30 minute incubation (T=30 min) to initiate the reaction. The final concentration of MAGL enzyme was […] and 7-HCA substrate was 5 μM. After these dilutions, the final concentration of the test compound ranged from 3 μM to 0.03 nM. The reaction was allowed to progress for 60 minutes, after which the plate was read at an Ex/Em of 340/465. Percent inhibitions were calculated based on control wells containing no compound (0% inhibition) and a control compound (e.g., a MAGL inhibitor whose activity is known or was previously reported in the literature, such as one with about 100% inhibition). IC50 values were generated based on a four parameter fit model using ABASE software from IDBS. See e.g., Wang, Y. et al., “A Fluorescence-Based Assay for Monoacylglycerol Lipase Compatible with Inhibitor Screening,” Assay and Drug Development Technologies, 2008, Vol. 6 (3) pp 387-393 (reporting an assay for measuring MAGL activity).
To measure MAGL inactivation, the same protocol for the (T=0 min) MAGL inhibition IC50 assay was performed with data collected every minute to acquire enzyme progress curves at decreasing concentrations of compound.

[3] = T = 0 min (substrate added immediately), read-out: MAGL (T = 0 min) IC50
[4] = T = 30 min (30 minute incubation), read-out: MAGL (T = 30 min) IC50

| IC50 [1, 3] [nM] | IC50 [1, 4] [nM] | IC50 (human recombinant FAAH) [nM] | MAGL kinact/KI [2] | SMILES |
| --- | --- | --- | --- | --- |
| 188 | 17 | > 30000 | 1801 1/s per M | O=C(O[C@H](CO)C(F)(F)F)N1CCC2(CCCN(S(=O)(=O)c3ccc(F)cc3)C2)CC1 [Example 12, (2R)-1,1,1-Trifluoro-3-hydroxypropan-2-yl 2-[(4-fluorophenyl)sulfonyl]-2,9-diazaspiro[5.5]undecane-9-carboxylate] |
| 28 | 2 | > 30000 | 33483 1/s per M | CN(C1COC2(CCN(C(=O)O[C@H](CO)C(F)(F)F)CC2)C1)S(=O)(=O)c1ccc(F)cc1 (single isomer, unassigned) [Example 111] |
| 14 | 1 | > 30000 | 147964 1/s per M | O=C(O[C@H](CO)C(F)(F)F)N1CCC2(CC1)CN(S(=O)(=O)c1cccc(F)c1)CCO2 [Example 11, (2R)-1,1,1-Trifluoro-3-hydroxypropan-2-yl 4-[(3-fluorophenyl)sulfonyl]-1-oxa-4,9-diazaspiro[5.5]undecane-9-carboxylate] |
| 86 | 10 | > 28700 | 5664 1/s per M | CN(C(=O)c1ccccc1)C1COC2(CCN(C(=O)O[C@H](CO)C(F)(F)F)CC2)C1 (single isomer, unassigned) [Example 100] |
| 77 | 7 | > 30000 | 5205 1/s per M | O=C(O[C@H](CO)C(F)(F)F)N1CCC(Oc2ccc(C3CC3)cn2)CC1 [Example 10, (2R)-1,1,1-Trifluoro-3-hydroxypropan-2-yl 4-[(5-cyclopropylpyridin-2-yl)oxy]piperidine-1-carboxylate] |
| 26 | 2 | 19200 | 49166 1/s per M | O=C(O[C@H](CO)C(F)(F)F)N1CCC2(CC1)CN(S(=O)(=O)c1ccccc1F)CCO2 [Example 84] |
| 51 | 3 | 10700 | 15960 1/s per M | CN(C1COC2(CCN(C(=O)O[C@H](CO)C(F)(F)F)CC2)C1)S(=O)(=O)c1cccc(F)c1 (single isomer, unassigned) [Example 108] |
| 153 | 15 | > 30000 | 3058 1/s per M | CC(C)CS(=O)(=O)N(C)[C@H]1COC2(CCN(C(=O)O[C@H](CO)C(F)(F)F)CC2)C1 [Example 139] |
| 96 | 10 | > 30000 | 2585 1/s per M | CN(C(=O)CC1CCC1)[C@H]1COC2(CCN(C(=O)O[C@H](CO)C(F)(F)F)CC2)C1 [Example 143] |
| 95 | 8 | > 30000 | 2397 1/s per M | O=C(OC(C(F)(F)F)C(F)(F)CO)N1CCC2(CC1)CN(S(=O)(=O)c1ccc(F)cc1)CCO2 (racemic) [Example 19, 1,1,1,3,3-Pentafluoro-4-hydroxybutan-2-yl 4-[(4-fluorophenyl)sulfonyl]-1-oxa-4,9-diazaspiro[5.5]undecane-9-carboxylate] |
| 168 | 13 | > 30000 | 4723 1/s per M | O=C(O[C@H](CO)C(F)(F)F)N1CCC2(CC1)CCN(S(=O)(=O)c1cccnc1)C2 [Example 135] |
| 31 | 2 | 7730 | 16949 1/s per M | O=C(O)C(F)(F)F.O=C(O[C@H](CO)C(F)(F)F)N1CCC(Oc2nccc3ccccc23)CC1 [Example 26, (2R)-1,1,1-Trifluoro-3-hydroxypropan-2-yl 4-(isoquinolin-1-yloxy)piperidine-1-carboxylate, trifluoroacetic acid salt] |
| 19 | 2 | > 30000 | 21997^d 1/s per M | O=C(O[C@H](CO)C(F)(F)F)N1CCC2(CC1)CN(S(=O)(=O)c1cccc(Cl)c1)CCO2 [Example 83] |
| 7 | 1 | 10000 | 26513 1/s per M | C#Cc1cccc(S(=O)(=O)N2CCOC3(CCN(C(=O)O[C@H](CO)C(F)(F)F)CC3)C2)c1 [Example 79] |
| 105 | 10 | > 30000 | 2802 1/s per M | CC(C)CC(=O)N(C)[C@H]1COC2(CCN(C(=O)O[C@H](CO)C(F)(F)F)CC2)C1 [Example 144] |
| 35 | 3 | 2480 | 20005 1/s per M | O=C(O[C@H](CO)C(F)(F)F)N1C[C@@H]2[C@H](C1)[C@H]2c1ccn(-c2ccc(F)cc2)n1 [Example 3, (2R)-1,1,1-Trifluoro-3-hydroxypropan-2-yl (1α,5α,6α)-6-[1-(4-fluorophenyl)-1H-pyrazol-3-yl]-3-azabicyclo[3.1.0]hexane-3-carboxylate] |
| 84 | 9 | > 30000 | 3961 1/s per M | CN(C(=O)C1CCC1)[C@H]1COC2(CCN(C(=O)O[C@H](CO)C(F)(F)F)CC2)C1 [Example 142] |
| 191 | 18 | > 30000 | 3134 1/s per M | CC(c1ccc(F)cc1)N1CCOC2(CCN(C(=O)O[C@H](CO)C(F)(F)F)CC2)C1 (single isomer, unassigned) [Example 45] |
| 163 | 15 | > 30000 | 6263 1/s per M | CN(C1COC2(CCN(C(=O)O[C@H](CO)C(F)(F)F)CC2)C1)S(=O)(=O)c1cccnc1 (mixture of isomers) [Example 114] |
| 65 | 7 | > 30000 | 5464 1/s per M | O=C(O[C@H](CO)C(F)(F)F)N1CCC2(CC1)CCN(C(=O)c1nccs1)C2 [Example 125] |
| 53 | 6 | > 30000 | 6900 1/s per M | O=C(O[C@H](CO)C(F)(F)F)N1CCC(Oc2ccc(C(F)(F)F)cn2)CC1 [Example 53] |
